Structures are written as SMILES. pIC50: −log10 of the molar value. Read-outs that look alike come from different tables or passages of the source.

The values that follow come from patent publication US10668055B2, “Cancer treatment using combinations of ERK and RAF inhibitors” (BIOMED VALLEY DISCOVERIES, INC., priority 2013, dated 2020).

The test system of data set [1] is A375 cells. The experiment in a line: Dose escalation study in A375 cells. Type of data set: cell-based, human. The conditions noted are these: after 2 months, cells exposed to agent alone. The procedure:
Single agent dose escalations were performed based on Little et al., 2011 and is outlined in FIG. 25. Cells were then allowed to grow until 70-90% confluence and split. […] Medium was refreshed every 3-4 days. When cells again reached about 40-60% confluence, the dose was escalated. In the event that the 40-60% window was missed, the cells were split again and dosed once they reached 40-60% confluence. Again, medium was refreshed every 3-4 days. The process was repeated as required (FIG. 25).

Data set [2] has as its system MAPK signaling pathway in A375 and HCT116 cells. The data set can be described thus: Western blot analysis of MAPK signaling, cell cycle and apoptosis proteins. Type of data set: cell-based, human. On the procedure:
Cells were allowed to adhere overnight prior to addition of the indicated amount of test compound (BVD-523) or vehicle control. Cells were treated for either 4 or 24 hours before isolation of whole-cell protein lysates, as specified below. Cells were harvested by trypsinisation, pelleted and snap frozen. Lysates were prepared with RIPA (Radio-Immunoprecipitation Assay) buffer, clarified by centrifugation and quantitated by bicinchoninic acid assay (BCA) assay. 20-50 μg of protein was resolved by SDS-PAGE electrophoresis, blotted onto PVDF membrane and probed using the antibodies detailed in Table 13 (for the 4-hour treatment) and Table 14 (for the 24-hour treatment) below.
Background: In western blotting, separated proteins are transferred to a membrane and probed.

Data set [3] has as its system A375 human melanoma xenograft. The data set can be described thus: A375 in vivo study: tumor growth delay and regression responses. The note with it: for MTV (n) D45: Day 45. On the set-up: species or system athymic nude mice. On the procedure: Female athymic nude mice (Crl:NU(Ncr)-Foxn/^nu, Charles River) were nine weeks old with a body weight (BW) range of 17.5 to 26.2 grams on Day 1 of the study. The animals were fed ad libitum water (reverse osmosis, 1 ppm CI), and NIH 31 Modified and Irradiated Lab Diet® consisting of 18.0% crude protein, 5.0% crude fat, and 5.0% crude fiber. The mice were housed on irradiated Enrich-o'cobs™ Laboratory Animal Bedding in static microisolators on a 12-hour light cycle at 20-22° C. (68-72° F.) and 40-60% humidity. The recommendations of the Guide for Care and Use of Laboratory Animals with respect to restraint, husbandry, surgical procedures, feed and fluid regulation, and veterinary care were complied with.
Tumor xenografts were initiated with A375 human melanomas by serial subcutaneous transplantation in athymic nude mice. On the day of tumor implant, each test mouse received a 1 mm^3 A375 fragment implanted subcutaneously in the right flank, and tumor growth was monitored as the average size approached the target range of 80 to 120 mm^3. Tumors were measured in two dimensions using calipers, and volume was calculated using the formula: […]
Ten days after tumor implantation, designated as Day 1 of the study, the animals were sorted into nine groups (Groups 1-9) each consisting of fifteen mice and one group (Group 10) consisting of ten mice. Individual tumor volumes ranged from 75 to 144 mm^3 and group mean tumor volumes were 110 or 111 mm^3.
On Day 1 of the study, mice were sorted into nine groups (Group 1-9) each consisting of fifteen mice and one group (Group 10) consisting of ten mice, and dosing was initiated according to the treatment plan summarized in Table 15 below. Each dose was given by oral gavage (p.o.) in a dosing volume of 10 mL/kg (0.2 mL per 20 grams of body weight), scaled to the body weight of each individual animal. The vehicle and dabrafenib doses were to be given once daily until study end (qd to end), whereas the BVD-523 doses were to be given twice daily until study end (bid to end). For bid dosing, dosing was initiated in the afternoon on Day 1, so that one dose was given on the first day (“first day 1 dose”).
Due to the striking response to combination treatment, dosing in Groups 2-5 was stopped on Day 20 in order to monitor tumor re-growth. Dosing was to be re-initiated in a group when the mean tumor burden reached 1000 mm^3. By Day 42, the 1000 mm^3 mean tumor burden had not been reached in any of the combination groups. Dosing was re-initiated to permit post-final dose serum and tumor sampling for pharmacokinetic analyses. […] The final dosing schedules are shown below in Table 16.
Tumors were measured using calipers twice per week, and each animal was euthanized when its tumor reached the pre-determined tumor volume endpoint of 2000 mm^3 or on the final day, whichever came first. Animals that exited the study for tumor volume endpoint were documented as euthanized for tumor progression (TP), with the date of euthanasia. The time to endpoint (TTE) for analysis was calculated for each mouse by the following equation:
[formula] where TTE is expressed in days, endpoint volume is expressed in mm^3, b is the intercept, and m is the slope of the line obtained by linear regression of a log-transformed tumor growth data set. The data set consists of the first observation that exceeded the endpoint volume used in analysis and the three consecutive observations that immediately preceded the attainment of this endpoint volume. The calculated TTE is usually less than the TP date, the day on which the animal was euthanized for tumor size. […] Any animal classified as having died from NTR (non-treatment-related) causes due to accident (NTRa) or due to unknown etiology (NTRu) were excluded from TTE calculations (and all further analyses). Animals classified as TR (treatment-related) deaths or NTRm (non-treatment-related death due to metastasis) were assigned a TTE value equal to the day of death. […]

Data set [4] in a line: A375 in vivo study: toxicity (body weight, deaths, side effects). The source says: Animals were weighed daily on Days 1-5, then twice per week until completion of the study. […] Individual body weight loss was monitored as per protocol, and any animal that exceeded the limits for acceptable body weight loss was euthanized. Group mean body weight loss also was monitored as per protocol. Dosing was to be suspended in any group that exceeded the limits for acceptable mean body weight loss. If mean body weight recovered, then dosing was to be resumed in that group, but at a lower dosage or less frequent dosing schedule.
Acceptable toxicity for the maximum tolerated dose (MTD) was defined as a group mean body-weight loss of less than 20% during the study and not more than 10% treatment-related (TR) deaths. […] A death was classified as non-treatment-related (NTR) if there was no evidence that death was related to treatment side effects. NTR deaths were further characterized based on cause of death. A death was classified as NTRa if it resulted from an accident or human error. […] A death was classified as NTRu if the cause of death was unknown and there was no available evidence of death related to treatment side effects, metastasis, accident or human error, although death due to treatment side effects cannot be excluded.

The test system of data set [5] is melanoma xenograft model derived from biopsies obtained from a patient. The experiment in a line: Melanoma xenograft model derived from patient biopsies after progression on vemurafenib. Type of data set: in vivo. The note with it: model with acquired cross-resistance.
The next data set concerns A375. The experiment in a line: Single agent proliferation assay (CellTiter-Glo, 72 h). Type of data set: cell-based, human. The conditions noted are these: Homo sapiens, A-375; A375, 72 h. On the procedure: (§1) Cells were seeded in 96-well plates at the densities and media conditions indicated in Table 17 and allowed to adhere overnight prior to addition of compound or vehicle control. Compounds were prepared from DMSO stocks to give the desired final concentrations. The final DMSO concentration was constant at 0.1%. Test compounds were incubated with the cells for 72 h at 37° C., 5% CO2 in a humidified atmosphere. CellTiter-Glo® reagent (Promega, Madison, Wis.) was added according to manufacturer's instructions and luminescence detected using the BMG FLUOstar plate reader (BMG Labtech, Ortenberg, Germany). The average media only background value was deducted and the data analysed using a 4-parameter logistic equation in GraphPad Prism (GraphPad Software, La Jolla, Calif.).
In general terms: In ATP-based viability assays light output follows the ATP content of the culture.

A further data set has as its system G-361. The description is as above. The class given is cell-based. The note with it: Homo sapiens, G-361, 72 h. On the procedure: as §1
In data set [6] the test system is A375 cells.
Experimental: (§2) Cancer cell lines were maintained in cell culture under standard media and serum conditions. For dose escalation studies, A375 cells were split, grown to about 40-60% confluence, and then treated with the initial dose of the specified drug.
(§3) Proliferation assays were used to track changes in sensitivity to the escalated agent(s) at appropriate time intervals (e.g. each month, although the timing is dependent on adequate cell numbers being available). For proliferation assays, cells were seeded in 96-well plates at 3000 cells per well in drug-free DMEM medium containing 10% FBS and allowed to adhere overnight prior to addition of compound or vehicle control. […] Test compounds were incubated with the cells for 96 hours at 37° C. and 5% CO2 in a humidified atmosphere. Alamar Blue 10% (v/v) was then added and incubated for 4 hours and fluorescent product was detected using a BMG FLUOstar plate reader. The average media only background value was deducted and the data analyzed using a 4-parameter logistic equation in GraphPad Prism. Paclitaxel was used as a positive control.
The test system of data set [7] is A375 cells. The data set can be described thus: Proliferation assay (Alamar Blue, 96 hours) on parental and dose-escalated A375 cell lines. The note with it: Homo sapiens. A general note: The colour change of resazurin is a common sign of viable cells or microbes.
Experimental: as §2, §3
The subject of data set [8] is MAPK signaling pathway in A375 and HCT116 cells. The conditions noted are these: Morris et al., 2013; cited from earlier work.

Regarding `CC(C)Nc1cc(-c2c[nH]c(C(=O)N[C@H](CO)c3cccc(Cl)c3)c2)c(Cl)cn1` [BVD-523], in the data set on A375 cells [1], the “Increase in drug exposure beyond the IC50 that cells withstand” value was “less than 10 fold”. Moreover, the “PARP protein cleavage and increased apoptosis” value in data set [2] (A375 cell background) is listed as “not noted”. In [2] (FIG. 18), the “Autophosphorylation of ERK” value is given as “allows for the autophosphorylation of ERK while still inhibiting ERK”. In addition, in data set [2] (prolonged treatment), the “DUSP6 total protein levels” value was “greatly reduced”, the cyclin-D1 protein levels result was “greatly reduced” and the “total levels of Bim-EL” value is on record as “increase”. In addition, in data set [3] (G8: 50 mg/kg po bid to end), the “% TGD” value is on record as −7%, the “Median TTE” value is 8.6 days, the “PR (partial regressions)” value is 0 and the “MTV (n) D45” value was 0 (1) imd. Moreover, in data set [3] (G9: 100 mg/kg po bid to end), the “% TGD” value is on record as 101%, the “Median TTE” value is reported as 18.5 days, the “PR (partial regressions)” value is recorded as 0 and the T-C came out at 9.3 days. Besides, the “MTV (n) D45” value in data set [3] (G9: 100 mg/kg po bid to end) is listed as 2 (2) imd. Also, in data set [4] (G8: 50 mg/kg po bid to end), the “Deaths NTR” value was found to be 0 and the “Deaths TR” value was determined as 0. Also, the “Mean BW Nadir” value in data set [4] (G8: 50 mg/kg po bid to end, nadir on Day 2) was −0.1% Day 2. In addition, in data set [4] (G9: 100 mg/kg po bid to end), the “Deaths NTR” value is 0 and the “Deaths TR” value is given as 0. Moreover, in data set [5], the Anti-tumor response result was “potent anti-tumor response”. This molecule also gave a negative-log IC50 (pIC50) in the data set on A375 of 7.06. In the data set on G-361, this molecule showed a negative-log IC50 (pIC50) of 6.46.

As for `CC(=O)O[C@H]1C(=O)[C@@]2(C)[C@H]([C@H](OC(=O)c3ccccc3)[C@]3(O)C[C@H](OC(=O)[C@H](O)[C@@H](NC(=O)c4ccccc4)c4ccccc4)C(C)=C1C3(C)C)[C@]1(OC(C)=O)CO[C@@H]1C[C@@H]2O` [Paclitaxel], the pIC50 is 8.30 in the data set on A375; 8.15 in the data set on G-361; 8.33 in the data set with A375 cells [6]; 8.66 in the data set on A375 cells [7] (A-375, read-out: Relative IC50, Month 1, Par = Parental cell line); 8.47 in the data set on A375 cells [7] (A-375, read-out: Relative IC50, Month 1, cell line BVD-523 (0.48 μM)); 8.48 with A375 cells [7] (A-375, read-out: Relative IC50, Month 1, cell line Dab (15 nM Dab)). The pIC50 with A375 cells [7] (A-375, read-out: Relative IC50, Month 1, cell line Dab/523 (7.5 nM/0.24 μM)) is 8.47; in the data set on A375 cells [7] (A-375, read-out: Relative IC50, Month 1, cell line Tram (growing in 2 nM Tram)) it was 8.52; with A375 cells [7] (A-375, read-out: Relative IC50, Month 2, Par = Parental cell line), 8.43; in the data set with A375 cells [7] (A-375, read-out: Relative IC50, Month 2, cell line BVD-523 (0.8 μM)), 8.19; in the data set with A375 cells [7] (A-375, read-out: Relative IC50, Month 2, cell line Dab (127 nM Dab)), 8.72; in the data set on A375 cells [7] (A-375, read-out: Relative IC50, Month 2, cell line Dab/523 (12.5 nM/0.4 μM)), 8.38. Besides, the negative-log IC50 (pIC50) in the data set with A375 cells [7] (A-375, read-out: Relative IC50, Month 2, cell line Tra (8 nM Tram)) is 8.05; in the data set with A375 cells [7] (A-375, read-out: Relative IC50, Month 3, Par = Parental cell line), 8.72; with A375 cells [7] (A-375, read-out: Relative IC50, Month 3, cell line Dab (3.2 μM Dab)) it was 8.72.

With `O=C(Nc1ccc2[nH]nc(-c3ccncc3)c2c1)[C@@H]1CCN(CC(=O)N2CCN(c3ccc(-c4ncccn4)cc3)CC2)C1` [SCH772984], the results for the pIC50 in the data set on A375 and in the data set on G-361 were 7.49 and 6.74, respectively. In addition, the “Autophosphorylation of ERK” value in data set [8] is “inhibit autophosphorylation of ERK”.

Broadly, the pIC50 is the negative decadic logarithm of the IC50, by convention in mol/L.
